The results in this text go back to PubChem BioAssay (NCI).

Test systems include A498 renal; HCT-116 colon; OVCAR-4 ovarian; SF-295 CNS; ACHN renal; LOX IMVI melanoma; SF-539 CNS; 786-0 renal; UACC-257 melanoma; OVCAR-8 ovarian.
Assay in all cases: growth of human tumour cells (NCI), 48 h

Molecules are shown by their SMILES.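 Test compounds were applied to cells in 96-well plates for 48 hours at 5 doses. GI50 is the concentration that inhibits growth by half. Definition used: TGI = concentration required for complete inhibition of growth.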

As for `CC(=O)OC1CC[C@@]2(C)C(=CC[C@@H]3[C@@H]2CC[C@]2(C)Nc4c(cnn4-c4ccc(F)cc4)C[C@@H]32)C1` (some centres not stated), the TGI was > 83.1 µM with A498 renal; > 50.5 µM in the assay with HCT-116 colon; > 100 µM in the assay with OVCAR-4 ovarian; 36.4 µM in the assay with SF-295 CNS; > 100 µM in the assay on ACHN renal; > 58.6 µM with LOX IMVI melanoma. In addition, the TGI in the assay on SF-539 CNS was 17.2 µM; in the assay on 786-0 renal it was > 59.2 µM; with UACC-257 melanoma, > 100 µM; in the assay with OVCAR-8 ovarian, > 100 µM.

`COc1cc2c(cc1OC)C/C(=N\O)c1cc(OC)c(OC)cc1/C=C\2`: the TGI in the assay on A498 renal was > 100 µM; in the assay on HCT-116 colon, > 39.2 µM; in the assay on OVCAR-4 ovarian it was > 100 µM; with SF-295 CNS, > 61 µM; in the assay with ACHN renal, > 100 µM; with LOX IMVI melanoma, 25.6 µM. Also, the TGI in the assay with SF-539 CNS is 18 µM; in the assay on 786-0 renal, > 100 µM; with UACC-257 melanoma it was > 48.8 µM; with OVCAR-8 ovarian, 73.3 µM.

As to `CCc1c[n+]2c(cc1C1=CN3c4ccccc4[C@]45CCN6C/C(=C/CO)[C@H](C[C@H]64)[C@@H]([C@@H]1O)[C@H]35)-c1[nH]c3ccccc3c1CC2`, the TGI in the assay on A498 renal, with HCT-116 colon, in the assay with OVCAR-4 ovarian, in the assay with SF-295 CNS, in the assay with ACHN renal and in the assay with LOX IMVI melanoma was > 50 µM throughout. Further, the TGI in the assay with SF-539 CNS, in the assay with 786-0 renal, with UACC-257 melanoma and in the assay with OVCAR-8 ovarian was > 50 µM throughout.

`C[C@]12CC[C@@H]3c4cc(C=O)c(OCc5ccccc5)cc4CC[C@H]3[C@@H]1CCC2OCc1ccccc1` (some centres not stated): the TGI in the assay on A498 renal, with HCT-116 colon, in the assay on OVCAR-4 ovarian, in the assay on SF-295 CNS, with ACHN renal and in the assay on LOX IMVI melanoma was > 100 µM throughout. The TGI in the assay with SF-539 CNS, in the assay on 786-0 renal, in the assay on UACC-257 melanoma and with OVCAR-8 ovarian was > 100 µM each time.

As to `c1ccc(C2SCc3nc4ccccc4n32)cc1` (configuration not stated), the TGI in the assay on A498 renal, in the assay with HCT-116 colon, in the assay with OVCAR-4 ovarian, with SF-295 CNS, with ACHN renal and in the assay with LOX IMVI melanoma was > 100 µM in each case. Also, the TGI is > 100 µM with SF-539 CNS, > 100 µM with 786-0 renal, 77.6 µM in the assay on UACC-257 melanoma and > 100 µM in the assay with OVCAR-8 ovarian.

As to `c1ccc(C(OCCN2CC3CCC(C2)N3)c2ccccc2)cc1`, the TGI in the assay on A498 renal, with HCT-116 colon, with OVCAR-4 ovarian, with SF-295 CNS, with ACHN renal and with LOX IMVI melanoma was > 100 µM in each case. Further, the TGI in the assay with SF-539 CNS was > 100 µM; with 786-0 renal, > 100 µM; in the assay with UACC-257 melanoma, 49 µM; with OVCAR-8 ovarian it was > 100 µM.

With `CN1C(=O)c2c(c3c4ccccc4n(C)c3c3c2c2ccccc2n3C)C1=O`, the TGI with A498 renal, with HCT-116 colon, with OVCAR-4 ovarian, in the assay on SF-295 CNS, with ACHN renal and in the assay on LOX IMVI melanoma was > 100 µM throughout. The TGI in the assay on SF-539 CNS, with 786-0 renal, with UACC-257 melanoma and with OVCAR-8 ovarian was > 100 µM each time.

`CN(C)CC(O)CNC(=O)Nc1ccccc1` (configuration not stated): the TGI in the assay with A498 renal, with HCT-116 colon, in the assay on OVCAR-4 ovarian, with SF-295 CNS, in the assay with ACHN renal and with LOX IMVI melanoma was > 100 µM each time. For the same compound, the TGI in the assay with SF-539 CNS, in the assay with 786-0 renal, in the assay on UACC-257 melanoma and with OVCAR-8 ovarian was > 100 µM each time.

Turning to `O=S1(=O)OCCOS(=O)(=O)C1C1c2ccccc2-c2ccccc21`, the TGI in the assay with A498 renal was > 100 µM; in the assay with HCT-116 colon, > 100 µM; in the assay with OVCAR-4 ovarian it was 52.4 µM; in the assay with SF-295 CNS it was > 100 µM; in the assay with ACHN renal it was > 100 µM; in the assay on LOX IMVI melanoma it was 89 µM. For the same compound, the TGI with SF-539 CNS, in the assay with 786-0 renal, with UACC-257 melanoma and with OVCAR-8 ovarian was > 100 µM in each case.

On to `O=C1C(Nc2ccc(S(=O)(=O)Nc3cnc4ccccc4n3)cc2)=CC(=Nc2ccc(S(=O)(=O)Nc3cnc4ccccc4n3)cc2)c2ccccc21`, for which the TGI in the assay on A498 renal was 30.3 µM; in the assay on HCT-116 colon, 32.9 µM; in the assay on OVCAR-4 ovarian it was 47.2 µM; in the assay on SF-295 CNS, 30.3 µM; in the assay with ACHN renal it was > 54.9 µM; with LOX IMVI melanoma, 30.7 µM. The TGI is 35.7 µM in the assay with SF-539 CNS, 31.6 µM in the assay on 786-0 renal, > 65.2 µM with UACC-257 melanoma and 39.5 µM in the assay with OVCAR-8 ovarian.

For the compound `CN(CCCNC(=O)c1[nH]nc2c1ccc1ccccc12)CCCNC(=O)c1[nH]nc2c1ccc1ccccc12`, the TGI came to 31.9 µM in the assay on A498 renal; 25.2 µM in the assay on HCT-116 colon; 37.4 µM in the assay on OVCAR-4 ovarian; 32.5 µM with SF-295 CNS; 31.4 µM with ACHN renal; 25.9 µM in the assay with LOX IMVI melanoma. The TGI in the assay with SF-539 CNS came to 24 µM; in the assay on 786-0 renal, 22.9 µM; in the assay with UACC-257 melanoma it was 16.9 µM; with OVCAR-8 ovarian it was 30.9 µM.

Regarding `COC(=O)C12CCC(CC1=O)C2(C)C` (configuration not stated), the TGI in the assay with A498 renal, in the assay with HCT-116 colon, in the assay on OVCAR-4 ovarian, with SF-295 CNS, with ACHN renal and with LOX IMVI melanoma was > 100 µM in each case. Moreover, the TGI with SF-539 CNS, in the assay on 786-0 renal, with UACC-257 melanoma and in the assay on OVCAR-8 ovarian was > 100 µM throughout.

Turning to `C=c1c2ccccc2oc2nc3[nH]c(N)c(C#N)c(N)c3c(=N)c12`, the TGI is > 100 µM in the assay on A498 renal; > 100 µM with HCT-116 colon; > 100 µM in the assay with OVCAR-4 ovarian; > 100 µM with SF-295 CNS; > 100 µM in the assay on ACHN renal; 68.4 µM with LOX IMVI melanoma. Further, the TGI is 71.5 µM in the assay on SF-539 CNS, > 100 µM in the assay on 786-0 renal, > 100 µM in the assay on UACC-257 melanoma and 54.6 µM in the assay with OVCAR-8 ovarian.

As for `COc1ccc2cc(CNCCOCCOCCNCc3ccc4cc(OC)ccc4c3)ccc2c1`, the TGI in the assay with A498 renal turned out to be 3.78 µM; with HCT-116 colon, 7.86 µM; with OVCAR-4 ovarian, 4.07 µM; with SF-295 CNS it was 2.59 µM; with ACHN renal, 3.01 µM; with LOX IMVI melanoma it was 1.22 µM. In addition, the TGI in the assay on SF-539 CNS was determined as 3.03 µM; in the assay with 786-0 renal, 2.19 µM; in the assay on UACC-257 melanoma it was 3.18 µM; in the assay on OVCAR-8 ovarian it was 2.97 µM.

Regarding `O=C(Cn1cc(I)c(C(=O)NCC(O)CO)n1)NCC(O)CO` (configuration not stated), the TGI in the assay with A498 renal, in the assay with HCT-116 colon, in the assay on OVCAR-4 ovarian, with SF-295 CNS, in the assay with ACHN renal and with LOX IMVI melanoma was > 100 µM throughout. In addition, the TGI in the assay with SF-539 CNS, in the assay with 786-0 renal, with UACC-257 melanoma and in the assay with OVCAR-8 ovarian was > 100 µM throughout.

For the compound `OC[C@H](O)[C@@H](OCc1ccccc1)[C@H](NCc1ccccc1)c1cccs1`, the TGI with A498 renal, with HCT-116 colon, with OVCAR-4 ovarian, in the assay with SF-295 CNS, with ACHN renal and with LOX IMVI melanoma was > 100 µM throughout. For the same compound, the TGI in the assay with SF-539 CNS, with 786-0 renal, in the assay on UACC-257 melanoma and in the assay on OVCAR-8 ovarian was > 100 µM throughout.

For `CCOC(=O)C(NS(=O)(=O)c1ccccc1)(C(F)(F)F)P(=O)(OCC(C)C)OCC(C)C` (configuration not stated), the TGI in the assay with A498 renal, in the assay with HCT-116 colon, with OVCAR-4 ovarian, in the assay with SF-295 CNS, in the assay with ACHN renal and in the assay on LOX IMVI melanoma was > 100 µM each time. Also, the TGI with SF-539 CNS, in the assay with 786-0 renal, in the assay with UACC-257 melanoma and in the assay on OVCAR-8 ovarian was > 100 µM in each case.

For `Clc1cccc(C=NC23CC4CC(CC(C4)C2)C3)c1Cl`, the TGI in the assay on A498 renal, in the assay on HCT-116 colon, in the assay on OVCAR-4 ovarian, with SF-295 CNS, in the assay on ACHN renal and in the assay on LOX IMVI melanoma was > 10 µM in each case. For the same compound, the TGI with SF-539 CNS, with 786-0 renal, with UACC-257 melanoma and in the assay on OVCAR-8 ovarian was > 10 µM each time.

Regarding `CCc1cc2c(cc1O)CC[C@@H]1[C@@H]2CC[C@]2(C)[C@@H](O)CC[C@@H]12`, the TGI in the assay on A498 renal worked out at 34.6 µM; in the assay on HCT-116 colon, 13.4 µM; with OVCAR-4 ovarian, 27.3 µM; in the assay with SF-295 CNS, 12.1 µM; in the assay on ACHN renal, 22.9 µM; in the assay with LOX IMVI melanoma it was 26.6 µM. For the same compound, the TGI was found to be 9.5 µM with SF-539 CNS, 17.8 µM in the assay on 786-0 renal, 20 µM in the assay on UACC-257 melanoma and 22.4 µM in the assay with OVCAR-8 ovarian. The GI50 in the assay with HCT-116 colon is 3.52 µM; in the assay on SF-539 CNS it was 3.27 µM.
